Source: patent publication US8906930B2, “Quinazoline derivatives” (Merck Patent GmbH, priority 2009, dated 2014)

Biological target: T1, Recombinant human HSP90α (Homo sapiens, UniProt P07900)
T1 construct: host or cells: E. coli
Experiment: HSP90 radioligand filter binding test ([3H]17AAG competition)
Details: radioligand [3H]17AAG 0.08 μM; HSP90 1.5 μg/assay; 22° C., 30 min; read-out: HSP90 inhibition IC50
Text: The binding of geldanamycin or 17-allylamino-17-demethoxygeldanamycin (17AAG) to HSP90 and competitive inhibition thereof can be utilised in order to determine the inhibitory activity of the compounds according to the invention (Carreras et al. 2003, Chiosis et al. 2002).
In the specific case, a radioligand filter binding test is used. The radioligand used here is tritium-labelled 17-allylaminogeldanamycin, [3H]17AAG. This filter binding test allows a targeted search for inhibitors which interfere with the ATP binding site.
Recombinant human HSP90α (E. coli expressed, 95% purity);
[3H]17AAG (17-allylaminogeldanamycin, [allylamino-2,3-^3H. Specific activity: 1.11×10^12 Bq/mmol (Moravek, MT-1717);
HEPES filter buffer (50 mM HEPES, pH 7.0, 5 mM MgCl2, BSA 0.01%) Multiscreen FB (1 μm) filter plate (Millipore, MAFBNOB 50).
The 96-well microtitre filter plates are firstly irrigated and coated with 0.1% of polyethylenimine.
The test is carried out under the following conditions:
Reaction temperature 22° C.
Reaction time: 30 min., shaking at 800 rpm
50 mM HEPES HCl, pH 7.0, 5 mM MgCl2, 0.01% (w/v) of BSA
At the end of the reaction, the supernatant in the filter plate is removed by suction with the aid of a vacuum manifold (Multiscreen Separation System, Millipore), and the filter is washed twice.
The filter plates are then measured in a beta counter (Microbeta, Wallac) with scintillator (Microscint 20, Packard).
“% of control” is determined from the “counts per minutes” values, and the IC-50 value of a compound is calculated therefrom.

Q: With `CC(C)(C(=O)NCCC#N)c1ccc2nc(N)nc(C(=O)N3Cc4ccccc4C3)c2c1` [Compound A40, 2-[2-Amino-4-(isoindoline-2-carbonyl)quinazolin-6-yl]-N-(2-cyanoethyl)-2-methylpropanamide] as the compound, how does the IC50 read?
A: 1000 to 10000 nM

Q: `CCNC(=O)C(c1ccc2nc(N)nc(C(=O)N3Cc4ccccc4C3)c2c1)C(C)C` (stereo not drawn) [Compound A48, 2-[2-Amino-4-(isoindoline-2-carbonyl)quinazolin-6-yl]-N-ethyl-3-methyl-butanamide] was tested. Which IC50 did it give?
A: 10 to 1000 nM

Q: With `CC(C)CNC(=O)C(C)(C)c1ccc2nc(N)nc(C(=O)N3Cc4ccccc4C3)c2c1` [Compound A37, 2-[2-Amino-4-(isoindoline-2-carbonyl)quinazolin-6-yl]-N-isobutyl-2-methylpropanamide] as the compound, how does the IC50 read?
A: 10 to 1000 nM

Q: With `CCCC(C)(C(=O)NCC)c1ccc2nc(N)nc(C(=O)N3Cc4ccccc4C3)c2c1` (stereo not drawn) [Compound A55, 2-[2-Amino-4-(isoindoline-2-carbonyl)quinazolin-6-yl]-N-ethyl-2-methylpentanamide] as the compound, how does the IC50 read?
A: 10 to 1000 nM

Q: With `CCCNC(=O)C1(c2ccc3nc(N)nc(C(=O)N4Cc5ccccc5C4)c3c2)CCC1` [Compound A32, 1-[2-Amino-4-(isoindoline-2-carbonyl)quinazolin-6-yl]-N-propylcyclobutanecarboxamide] as the compound, how does the IC50 read?
A: 10 to 1000 nM

Q: How did the IC50 turn out when `Nc1nc(C(=O)N2Cc3ccccc3C2)c2cc(C3(C(=O)N4CCCC4)CC3)ccc2n1` [Compound A27, [2-Amino-6-[1-(pyrrolidine-1-carbonyl)cyclopropyl]quinazolin-4-yl]isoindolin-2-ylmethanone] was run?
A: 1000 to 10000 nM

Q: How did the IC50 turn out when `CCN(CC)C(=O)C1(c2ccc3nc(N)nc(C(=O)N4Cc5ccccc5C4)c3c2)CC1` [Compound A24, 1-[2-Amino-4-(isoindoline-2-carbonyl)quinazolin-6-yl]-N,N-diethylcyclopropanecarboxamide] was run?
A: 1000 to 10000 nM

Q: With `CCNC(=O)C1(c2ccc3nc(N)nc(C(=O)N4Cc5ccccc5C4)c3c2)CCOCC1` [Compound A54, 1-[2-Amino-4-(isoindoline-2-carbonyl)quinazolin-6-yl]-N-ethyltetrahydropyran-4-carboxamide] as the compound, how does the IC50 read?
A: 1000 to 10000 nM

Q: How did the IC50 turn out when `CCOC(=O)C1(c2ccc3nc(N)nc(C(=O)N4Cc5ccccc5C4)c3c2)CC1` [Compound A56, Ethyl 1-[2-amino-4-(isoindoline-2-carbonyl)quinazolin-6-yl]cyclopropanecarboxylate] was run?
A: 10 to 1000 nM

Q: With `CCNC(=O)C1(c2ccc3nc(N)nc(C(=O)N4Cc5ccccc5C4)c3c2)CCCC1` [Compound A53, 1-[2-Amino-4-(isoindoline-2-carbonyl)quinazolin-6-yl]-N-ethylcyclopentanecarboxamide] as the compound, how does the IC50 read?
A: 10 to 1000 nM

Q: For `CC(C)(C)NC(=O)C1(c2ccc3nc(N)nc(C(=O)N4Cc5ccccc5C4)c3c2)CCC1` [Compound A29, 1-[2-Amino-4-(isoindoline-2-carbonyl)quinazolin-6-yl]-N-tert-butylcyclobutanecarboxamide], which IC50 is on record?
A: 10 to 1000 nM

Q: `CC1CCC(C)N1C(=O)Cc1ccc2nc(N)nc(C(=O)N3Cc4ccccc4C3)c2c1` (stereo not drawn) [Compound A15, 2-[2-Amino-4-(isoindoline-2-carbonyl)quinazolin-6-yl]-1-(2,5-dimethylpyrrolidin-1-yl)ethanone] was tested. Which IC50 did it give?
A: 1000 to 10000 nM

Q: Which IC50 does the source give for `CCNC(=O)C1(c2ccc3nc(N)nc(C(=O)N4Cc5ccccc5C4)c3c2)CC1` [Compound A21, 1-[2-Amino-4-(isoindoline-2-carbonyl)quinazolin-6-yl]-N-ethylcyclopropanecarboxamide] here?
A: 10 to 1000 nM

Q: With `CCN(C)C(=O)Cc1ccc2nc(N)nc(C(=O)N3Cc4ccccc4C3)c2c1` [Compound A10, 2-[2-Amino-4-(isoindoline-2-carbonyl)quinazolin-6-yl]-N-ethyl-N-methylacetamide] as the compound, how does the IC50 read?
A: 1000 to 10000 nM

Q: With `CCN(CC)C(=O)Cc1ccc2nc(N)nc(C(=O)N3Cc4ccccc4C3)c2c1` [Compound A8, 2-[2-amino-4-(isoindoline-2-carbonyl)quinazolin-6-yl]-N,N-diethylacetamide] as the compound, how does the IC50 read?
A: 1000 to 10000 nM

Q: For `CCOC(=O)Cc1ccc2nc(N)nc(C(=O)N3Cc4ccccc4C3)c2c1` [Compound A1, Ethyl 2-[2-amino-4-(isoindoline-2-carbonyl)quinazolin-6-yl]acetate], which IC50 is on record?
A: 10 to 1000 nM

Q: How did the IC50 turn out when `CNC(=O)C1(c2ccc3nc(N)nc(C(=O)N4Cc5ccccc5C4)c3c2)CCC1` [Compound A31, 1-[2-Amino-4-(isoindoline-2-carbonyl)quinazolin-6-yl]-N-methylcyclobutanecarboxamide] was run?
A: 10 to 1000 nM

Q: For `CCNC(=O)C(c1ccc2nc(N)nc(C(=O)N3Cc4ccccc4C3)c2c1)C(C)CC` (stereo not drawn) [Compound A47, 2-[2-Amino-4-(isoindoline-2-carbonyl)quinazolin-6-yl]-N-ethyl-3-methylpentanamide], which IC50 is on record?
A: 10 to 1000 nM
